Measurements: patent publication US7763663B2, “Polysaccharide-containing block copolymer particles and uses thereof” (priority 2001, dated 2010)

Tested on: ear swelling
Details: conventional form, 200 mg dose (highest dosage used), topical, after 6 hours of exposure, croton oil
Description: Croton oil was applied to the left and right ears of five animals to cause inflammation. Two hours later, a nanoparticle preparation of Celebrex or conventional form of Celebrex® was applied topically to the left or right ear.

For `Cc1ccc(-c2cc(C(F)(F)F)nn2-c2ccc(S(N)(=O)=O)cc2)cc1` [Celebrex® delivered in conventional form], which “reduction in ear swelling” value is on record?
The value was 60%.
